From patent US20230159556A1, “NOVEL PROTEIN KINASE INHIBITORS” (TENOVA PHARMACEUTICALS INC., priority 2020, published 2023)

What was measured:
EGFR_L858R/T790M/C797S = target: T1, EGFR_L858R/T790M/C797S (Homo sapiens, UniProt P00533, C797S/L858R/T790M); assay: In vitro biochemical kinase assay (33P-ATP filter-binding, Reaction Biology)
T1 construct: Reaction Biology Corporation (contract assay provider)
Method: The biochemical kinase assay was performed at Reaction Biology Corporation (www.reactionbiology.com, Malvern, Pa.) following procedures described in the reference (Anastassiadis, T, et al, Nature Biotechnology, 2011, 29, 1039). Base Reaction buffer includes 20 mM Hepes (pH 7.5), 10 mM MgCl2, 1 mM EGTA, 0.02% Brij35, 0.02 mg/ml BSA, 0.1 mM Na3VO4, 2 mM DTT and 1% DMSO. Required cofactors are added individually to each kinase reaction. Testing compounds were dissolved in 100% DMSO to specific concentration. The serial dilution was conducted by Integra Viaflo Assist in DMSO. Compounds in 100% DMSO are into the kinase reaction mixture by Acoustic technology (Echo550; nanoliter range), incubate for 20 min at room temperature, followed by ^33P-ATP and incubation for 2 hours at room temperature. Radioactivity was then detected by filter-binding method. Kinase activity data were expressed as the percent remaining kinase activity in test samples compared to vehicle (dimethyl sulfoxide) reactions. IC50 values and curve fits were obtained using Prism (GraphPad Software).

[1] = target: Ba/F3_EGFR_del19/T790M/C797S cell (Homo sapiens, UniProt P00533, T790M/C797S, cells depend on it, form not given); assay: BaF3 cell proliferation assay (CelltiterGlo, 72 hr); assay type: cell-based; conditions: 72 hr incubation; read-out: IC50 (nM, Ba/F3_EGFR_del19/T790M/C797S cell proliferation)
Method: (§1) The BaF3 cell proliferation assay was performed at Pharmaron (www.pharmaron.com, Beijing, China). The Ba/F3_WT and Ba/F3_Del19/T790M/C797S cell lines were maintained in 1640 medium containing 10% FBS, 1*PS and 1*Glutamax. Only cells with viability greater than 90% are used for assays. Dispense 30 μl of cell suspension at 700/well into 384 well microplate, add 30 nl compound solution into 384 cell plate by Echo, cells were incubated for 72 hr in 37° C./5% CO2 incubator, add 30 μl reagent CelltiterGlo assay kit (CTG, Promega) per well and shake plates, incubate the plate (avoiding light) at 37° C./5% CO2 for 30 min. and read the luminescence by Envision. The luminescence values were converted to % Inhibition. Calculate IC50 by fitting % inhibition values and log of compound concentrations to nonlinear regression (dose response−variable slope) with Graphpad 5.0.
(§2) Y=Bottom+(Top−Bottom)/(1+10^((Log IC50−X)*HillSlope))
(§3) X: log of inhibitor concentration; Y: % Inhibition.

Ba/F3_WT cell = assay: as above; assay type: cell-based; conditions: Mus musculus, 72 hr incubation
Method: as §1, §2, §3

T1 sequence (P00533 25-1210 T790M/C797S/L858R): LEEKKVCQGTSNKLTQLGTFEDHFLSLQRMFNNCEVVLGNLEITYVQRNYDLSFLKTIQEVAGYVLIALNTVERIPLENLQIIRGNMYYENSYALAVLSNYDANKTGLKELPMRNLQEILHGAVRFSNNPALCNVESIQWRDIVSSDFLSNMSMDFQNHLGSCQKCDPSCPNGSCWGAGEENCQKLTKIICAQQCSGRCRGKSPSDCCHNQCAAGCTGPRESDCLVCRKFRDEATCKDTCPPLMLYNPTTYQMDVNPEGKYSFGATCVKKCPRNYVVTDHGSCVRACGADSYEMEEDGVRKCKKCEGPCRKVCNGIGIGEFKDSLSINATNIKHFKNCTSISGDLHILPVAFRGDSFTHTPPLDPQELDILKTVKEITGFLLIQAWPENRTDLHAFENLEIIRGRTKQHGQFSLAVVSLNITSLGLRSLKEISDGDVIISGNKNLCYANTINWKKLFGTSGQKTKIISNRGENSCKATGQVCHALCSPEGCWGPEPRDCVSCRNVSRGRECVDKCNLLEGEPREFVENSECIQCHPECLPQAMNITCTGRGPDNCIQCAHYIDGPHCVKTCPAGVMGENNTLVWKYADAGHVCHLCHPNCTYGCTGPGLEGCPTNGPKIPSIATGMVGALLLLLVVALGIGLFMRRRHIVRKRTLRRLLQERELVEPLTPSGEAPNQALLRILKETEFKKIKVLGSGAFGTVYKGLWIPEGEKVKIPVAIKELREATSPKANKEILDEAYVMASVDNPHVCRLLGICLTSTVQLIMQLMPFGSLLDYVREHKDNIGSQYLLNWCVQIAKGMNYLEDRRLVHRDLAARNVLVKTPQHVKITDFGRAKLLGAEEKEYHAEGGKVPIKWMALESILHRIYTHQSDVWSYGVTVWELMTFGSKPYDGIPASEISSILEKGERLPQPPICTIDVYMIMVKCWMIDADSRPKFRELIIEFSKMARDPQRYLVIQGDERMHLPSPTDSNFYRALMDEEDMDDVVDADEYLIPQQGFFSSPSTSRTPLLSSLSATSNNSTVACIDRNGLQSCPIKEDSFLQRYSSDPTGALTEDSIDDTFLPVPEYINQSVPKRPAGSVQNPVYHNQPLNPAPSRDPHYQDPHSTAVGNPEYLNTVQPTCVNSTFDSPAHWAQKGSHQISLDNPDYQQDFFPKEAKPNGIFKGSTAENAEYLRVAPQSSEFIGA
Ba/F3_EGFR_del19/T790M/C797S cell, sequence (P00533 with tags, fused parts or gaps DEL746-750/T790M/C797S, form open): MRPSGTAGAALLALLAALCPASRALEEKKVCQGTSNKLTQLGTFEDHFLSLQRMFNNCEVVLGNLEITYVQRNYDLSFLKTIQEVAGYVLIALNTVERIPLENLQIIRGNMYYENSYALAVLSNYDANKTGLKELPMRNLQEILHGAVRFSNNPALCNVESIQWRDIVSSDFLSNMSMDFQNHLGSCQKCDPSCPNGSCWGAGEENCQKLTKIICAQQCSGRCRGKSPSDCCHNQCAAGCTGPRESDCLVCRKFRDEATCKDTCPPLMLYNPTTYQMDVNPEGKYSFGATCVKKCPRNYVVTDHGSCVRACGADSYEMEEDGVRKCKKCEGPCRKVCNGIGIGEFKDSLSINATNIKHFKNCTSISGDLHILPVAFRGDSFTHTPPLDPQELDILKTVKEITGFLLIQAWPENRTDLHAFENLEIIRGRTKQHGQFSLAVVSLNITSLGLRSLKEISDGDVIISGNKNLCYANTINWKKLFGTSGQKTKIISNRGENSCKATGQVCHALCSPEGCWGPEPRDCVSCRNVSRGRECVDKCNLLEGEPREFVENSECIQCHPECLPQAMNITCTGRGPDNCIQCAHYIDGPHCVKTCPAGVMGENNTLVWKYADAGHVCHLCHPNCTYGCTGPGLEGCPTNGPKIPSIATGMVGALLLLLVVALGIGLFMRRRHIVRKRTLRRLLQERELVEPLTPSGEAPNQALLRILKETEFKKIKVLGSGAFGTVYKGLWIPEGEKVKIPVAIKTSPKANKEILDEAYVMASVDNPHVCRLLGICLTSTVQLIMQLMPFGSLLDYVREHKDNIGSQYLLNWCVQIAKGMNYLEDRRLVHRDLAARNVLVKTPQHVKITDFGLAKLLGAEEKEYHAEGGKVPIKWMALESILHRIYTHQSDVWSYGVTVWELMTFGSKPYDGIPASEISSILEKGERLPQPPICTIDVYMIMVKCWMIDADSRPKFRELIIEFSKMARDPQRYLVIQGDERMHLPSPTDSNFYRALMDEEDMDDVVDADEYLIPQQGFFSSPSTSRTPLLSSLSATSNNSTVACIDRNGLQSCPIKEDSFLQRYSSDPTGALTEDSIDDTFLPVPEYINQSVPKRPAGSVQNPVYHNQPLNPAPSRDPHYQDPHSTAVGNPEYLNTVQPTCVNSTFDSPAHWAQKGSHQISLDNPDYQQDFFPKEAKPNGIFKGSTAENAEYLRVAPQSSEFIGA

Row | Compound | IC50 (EGFR_L858R/T790M/C797S) [nM] | GI50 [1] [nM] | IC50 (Ba/F3_WT cell) [nM]
1 | COc1cc(N2CCN(C)CC2)c2cc1Nc1ncc(Cl)c(n1)Nc1ccc(cc1N(C)S(C)(=O)=O)OCCC2 [Compound A2, N-(3^5-chloro-1^6-methoxy-1^4-(4-methylpiperazin-1-yl)-6-oxa-2,4-diaza-3(2,4)-pyrimidina-1(1,3),5(1,4)-dibenzenacyclononaphane-5^2-yl)-N-methylmethanesulfonamide] | 643 | – | –
2 | COc1cc(N2CCN(C)CC2)c2cc1Nc1ncc(Cl)c(n1)Nc1ccc(cc1N(C)S(C)(=O)=O)OCCCC2 [Compound A4, N-(3^5-chloro-1^6-methoxy-1^4-(4-methylpiperazin-1-yl)-6-oxa-2,4-diaza-3(2,4)-pyrimidina-1(1,3),5(1,4)-dibenzenacyclodecaphane-5^2-yl)-N-methylmethanesulfonamide] | 46.5 | 252 | 3320
3 | COc1cc(N(C)CCN(C)C)c2cc1Nc1ncc(Cl)c(n1)Nc1ccc(cc1N(C)S(C)(=O)=O)OCCCCC2 [Compound A5, N-(3^5-chloro-1^4-((2-(dimethylamino)ethyl)(methyl)amino)-1^6-methoxy-6-oxa-2,4-diaza-3(2,4)-pyrimidina-1(1,3),5(1,4)-dibenzenacycloundecaphane-5^2-yl)-N-methylmethanesulfonamide] | 27.9 | – | –
4 | COc1cc(N2CCN(C)CC2)c2cc1Nc1ncc(Cl)c(n1)Nc1ccc(cc1S(C)(=O)=O)OCCCC2 [Compound A6, 3^5-chloro-1^6-methoxy-1^4-(4-methylpiperazin-1-yl)-5^2-(methylsulfonyl)-6-oxa-2,4-diaza-3(2,4)-pyrimidina-1(1,3),5(1,4)-dibenzenacyclodecaphane] | 10000 | – | –
5 | COc1cc(N(C)CCN(C)C)c2cc1Nc1ncc(Cl)c(n1)Nc1ccc(cc1N(C)S(C)(=O)=O)OCCC2 [Compound A7, N-(3^5-chloro-1^4-((2-(dimethylamino)ethyl)(methyl)amino)-1^6-methoxy-6-oxa-2,4-diaza-3(2,4)-pyrimidina-1(1,3),5(1,4)-dibenzenacyclononaphane-5^2-yl)-N-methylmethanesulfonamide] | 3760 | – | –
6 | COc1cc(N2CCN(C)CC2)c2cc1Nc1ncc(F)c(n1)Nc1ccc(cc1N(C)S(C)(=O)=O)OCCCCC2 [Compound A11, N-(3^5-fluoro-1^6-methoxy-1^4-(4-methylpiperazin-1-yl)-6-oxa-2,4-diaza-3(2,4)-pyrimidina-1(1,3),5(1,4)-dibenzenacycloundecaphane-5^2-yl)-N-methylmethanesulfonamide] | 17 | – | –
7 | COc1cc(N2CCN(C)CC2)c2cc1Nc1ncc(Cl)c(n1)Nc1ccc(cc1NS(C)(=O)=O)OCCCCC2 [Compound A16, N-(3^5-chloro-1^6-methoxy-1^4-(4-methylpiperazin-1-yl)-6-oxa-2,4-diaza-3(2,4)-pyrimidina-1(1,3),5(1,4)-dibenzenacycloundecaphane-5^2-yl)methanesulfonamide] | 20.3 | – | –
8 | COc1cc(N2CCN(C)CC2)c2cc1Nc1ncc(Cl)c(n1)Nc1ccc(cc1N(C)S(=O)(=O)C(C)C)OCCCCC2 [Compound A17, N-(3^5-chloro-1^6-methoxy-1^4-(4-methylpiperazin-1-yl)-6-oxa-2,4-diaza-3(2,4)-pyrimidina-1(1,3),5(1,4)-dibenzenacycloundecaphane-5^2-yl)-N-methylpropane-2-sulfonamide] | 82.2 | – | –
9 | COc1cc(N2CCC(N3CCN(C)CC3)CC2)c2cc1Nc1ncc(Cl)c(n1)Nc1ccc(cc1S(C)(=O)=O)OCCCCCC2 [Compound A19, 3^5-chloro-1^6-methoxy-1^4-(4-(4-methylpiperazin-1-yl)piperidin-1-yl)-5^2-(methylsulfonyl)-6-oxa-2,4-diaza-3(2,4)-pyrimidina-1(1,3),5(1,4)-dibenzenacyclododecaphane] | 180 | – | –
10 | CCOc1cc(N2CCN(C)CC2)c2cc1Nc1ncc(Cl)c(n1)Nc1ccc(cc1N(C)S(C)(=O)=O)OCCCCC2 [Compound A21, N-(3^5-chloro-1^6-ethoxy-1^4-(4-methylpiperazin-1-yl)-6-oxa-2,4-diaza-3(2,4)-pyrimidina-1(1,3),5(1,4)-dibenzenacycloundecaphane-5^2-yl)-N-methylmethanesulfonamide] | 40.5 | – | –
11 | CC(C)Oc1cc(N2CCN(C)CC2)c2cc1Nc1ncc(Cl)c(n1)Nc1ccc(cc1N(C)S(C)(=O)=O)OCCCCC2 [Compound A22, N-(3^5-chloro-1^6-isopropoxy-1^4-(4-methylpiperazin-1-yl)-6-oxa-2,4-diaza-3(2,4)-pyrimidina-1(1,3),5(1,4)-dibenzenacycloundecaphane-5^2-yl)-N-methylmethanesulfonamide] | 503 | – | –
12 | COc1cc(N2CCN(C)CC2)c2cc1Nc1ncc(Cl)c(n1)Nc1ccc(cc1C(=O)N(C)C)OCCCCCC2 [Compound A25, 3^5-chloro-1^6-methoxy-N,N-dimethyl-1^4-(4-methylpiperazin-1-yl)-6-oxa-2,4-diaza-3(2,4)-pyrimidina-1(1,3),5(1,4)-dibenzenacyclododecaphane-5^2-carboxamide] | 2510 | – | –

Stronger by IC50 (EGFR_L858R/T790M/C797S), values ahead:

Row | IC50 (EGFR_L858R/T790M/C797S) [nM] | GI50 [1] [nM] | IC50 (Ba/F3_WT cell) [nM] | Compound
13 | 9.86 | 135 | 1180 | COc1cc(N2CCN(C)CC2)c2cc1Nc1ncc(Cl)c(n1)Nc1ccc(cc1N(C)S(C)(=O)=O)OCCCCC2 [Compound A3, N-(3^5-chloro-1^6-methoxy-1^4-(4-methylpiperazin-1-yl)-6-oxa-2,4-diaza-3(2,4)-pyrimidina-1(1,3),5(1,4)-dibenzenacycloundecaphane-5^2-yl)-N-methylmethanesulfonamide]
14 | 0.6 | – | – | COc1cc(N2CCN(C)CC2)c2cc1Nc1ncc(Br)c(n1)Nc1ccc(cc1N(C)S(C)(=O)=O)OCCCCC2 [Compound A12, N-(3^5-bromo-1^6-methoxy-1^4-(4-methylpiperazin-1-yl)-6-oxa-2,4-diaza-3(2,4)-pyrimidina-1(1,3),5(1,4)-dibenzenacycloundecaphane-5^2-yl)-N-methylmethanesulfonamide]
15 | 2.9 | – | – | COc1cc(N2CCC(N(C)CCN(C)C)CC2)c2cc1Nc1ncc(Br)c(n1)Nc1ccc(cc1N(C)S(C)(=O)=O)OCCCCC2 [Compound A36, N-(3^5-bromo-1^4-(4-((2-(dimethylamino)ethyl)(methyl)amino)piperidin-1-yl)-1^6-methoxy-6-oxa-2,4-diaza-3(2,4)-pyrimidina-1(1,3),5(1,4)-dibenzenacycloundecaphane-5^2-yl)-N-methylmethanesulfonamide]
16 | 0.6 | – | – | COc1cc(N2CCC(N3CCC(N(C)C)CC3)CC2)c2cc1Nc1ncc(Br)c(n1)Nc1ccc(cc1N(C)S(C)(=O)=O)OCCCCC2 [Compound A37, N-(3^5-bromo-1^4-(4-(dimethylamino)-[1,4′-bipiperidin]-1′-yl)-1^6-methoxy-6-oxa-2,4-diaza-3(2,4)-pyrimidina-1(1,3),5(1,4)-dibenzenacycloundecaphane-5^2-yl)-N-methylmethanesulfonamide]
17 | 0.3 | – | – | COc1cc(N2CCC3(CC2)CN(C)C3)c2cc1Nc1ncc(Br)c(n1)Nc1ccc(cc1N(C)S(C)(=O)=O)OCCCCC2 [Compound A38, N-(3^5-bromo-1^6-methoxy-1^4-(2-methyl-2,7-diazaspiro[3.5]nonan-7-yl)-6-oxa-2,4-diaza-3(2,4)-pyrimidina-1(1,3),5(1,4)-dibenzenacycloundecaphane-5^2-yl)-N-methylmethanesulfonamide]
18 | 4.3 | – | – | COc1cc(N2CCC(N3CCN(C)CC3)CC2)c2cc1Nc1ncc(Cl)c(n1)Nc1ccc(cc1N(C)S(C)(=O)=O)OCCCCC(=O)N2 [Compound A40, N-(3^5-chloro-1^6-methoxy-1^4-(4-(4-methylpiperazin-1-yl)piperidin-1-yl)-11-oxo-6-oxa-2,4,12-triaza-3(2,4)-pyrimidina-1(1,3),5(1,4)-dibenzenacyclododecaphane-5^2-yl)-N-methylmethanesulfonamide]
19 | 0.4 | – | – | COc1cc(N2CCC(N3CCN(C)CC3)CC2)c2cc1Nc1ncc(Br)c(n1)Nc1ccc(cc1N(C)S(C)(=O)=O)CCC(=O)NCCC2 [Compound A41, N-(3^5-bromo-1^6-methoxy-1^4-(4-(4-methylpiperazin-1-yl)piperidin-1-yl)-8-oxo-2,4,9-triaza-3(2,4)-pyrimidina-1(1,3),5(1,4)-dibenzenacyclododecaphane-5^2-yl)-N-methylmethanesulfonamide]
20 | 3.8 | – | – | COc1cc(N2CCC(N3CCN(C)CC3)CC2)c2cc1Nc1ncc(Br)c(n1)Nc1ccc(cc1N(C)S(C)(=O)=O)CCCNC(=O)CC2 [Compound A42]
